Entries after “also recorded” stand apart in the source; their conditions may differ. Where two headings read alike, the source gives them in different places.
Assays:
[1] = molecular target: T1, human recombinant cDNA-expressed CYP1A1 (Homo sapiens, UniProt P04798); test: Inhibition of phenacetin O-deethylation by human recombinant cDNA-expressed CYP1A1; type: biochemical
T1 construct: purchased Corning Gentest (Woburn, MA)
T1 sequence (P04798 1-512): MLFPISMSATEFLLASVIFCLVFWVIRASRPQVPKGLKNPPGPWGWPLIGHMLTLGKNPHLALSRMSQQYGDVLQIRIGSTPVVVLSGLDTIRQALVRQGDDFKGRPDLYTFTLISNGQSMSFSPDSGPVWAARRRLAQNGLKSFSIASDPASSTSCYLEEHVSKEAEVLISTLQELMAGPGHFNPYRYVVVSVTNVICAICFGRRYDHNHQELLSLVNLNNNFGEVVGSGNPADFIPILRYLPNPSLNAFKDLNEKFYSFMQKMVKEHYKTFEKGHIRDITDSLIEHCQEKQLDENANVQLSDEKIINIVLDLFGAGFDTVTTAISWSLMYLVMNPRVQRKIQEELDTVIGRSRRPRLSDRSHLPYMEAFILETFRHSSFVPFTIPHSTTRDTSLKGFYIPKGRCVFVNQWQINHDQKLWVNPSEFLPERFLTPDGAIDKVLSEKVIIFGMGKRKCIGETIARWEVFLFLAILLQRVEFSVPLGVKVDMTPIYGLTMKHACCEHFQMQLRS
Method: To confirm the selective inhibition of CYP1A by bakuchicin, 10 pmol of human recombinant cDNA-expressed CYP1A1 and CYP1A2 was incubated with bakuchicin at 0.1–50 μM and NGS for 60 min at 37°C after the addition of 80 μM phenacetin as a selective CYP1A substrate. Those were terminated by adding 100 μL acetonitrile containing 0.1% formic acid and 2.5 μL of internal standard solution (5 μM reserpine) in methanol. After mixing and centrifuging at 13,000 ×g for 12 min, a 5 μL aliquot was injected onto a C18 column for LC-MS/MS analysis. CYP1A1 and CYP1A2 activities were determined by phenacetin O-deethylation. The inhibition patterns of bakuchicin on CYP1A in human recombinant cDNA-expressed CYP1A1 and CYP1A2 were confirmed by Michaelis-Menten and secondary plot.
(§1) All measurements were performed using LC-MS/MS in multiple reaction monitoring mode. LC-MS/MS was performed using an Accela™ LC system coupled to a TSQ Vantage triple quadrupole mass spectrometer (Thermo Fisher Scientific Inc., USA) equipped with a HESI-II Spray source. Electrospray ionization was performed in positive mode at a spray voltage of 3,500 V (except for the detection of 6-hydroxy chlorzoxazone). Nitrogen was used as a sheath and auxiliary gas at optimum values of 45 and 20 (arbitrary units), respectively. Vaporizer and capillary temperatures were 150 and 300°C, respectively. For LC analysis an Inertsil® ODS-2 (3 μm, 2.1 × 150 mm) column (GL Sciences Inc., Torrance, CA) was used. The mobile phase consisted of acetonitrile (mobile phase A) and water (mobile phase B), both of which contained 0.1% formic acid, at a flow rate of 0.22 mL/min at 30°C.
(§2) All incubations were performed in duplicate, and data are presented as means. IC50 values (the concentration of inhibitor causing a 50% inhibition in enzyme activity) were obtained using percent activity versus log[I] concentration plots. Kinetic parameters were estimated by curve fitting using SigmaPlot (version 12.0, Systat Software, Inc.).

CYP1A = molecular target: T2, CYP1A (Homo sapiens, UniProt P05177); test: Inhibition mode on CYP1A-catalyzed phenacetin O-deethylation in HLMs (Lineweaver-Burk and secondary plot); type: in vitro ADME; conditions: for inhibition mechanism on CYP1A in HLMs: pooled HLMs, phenacetin O-deethylation, Lineweaver-Burk plot / IC50 shift
T2 sequence (P05177 2-516): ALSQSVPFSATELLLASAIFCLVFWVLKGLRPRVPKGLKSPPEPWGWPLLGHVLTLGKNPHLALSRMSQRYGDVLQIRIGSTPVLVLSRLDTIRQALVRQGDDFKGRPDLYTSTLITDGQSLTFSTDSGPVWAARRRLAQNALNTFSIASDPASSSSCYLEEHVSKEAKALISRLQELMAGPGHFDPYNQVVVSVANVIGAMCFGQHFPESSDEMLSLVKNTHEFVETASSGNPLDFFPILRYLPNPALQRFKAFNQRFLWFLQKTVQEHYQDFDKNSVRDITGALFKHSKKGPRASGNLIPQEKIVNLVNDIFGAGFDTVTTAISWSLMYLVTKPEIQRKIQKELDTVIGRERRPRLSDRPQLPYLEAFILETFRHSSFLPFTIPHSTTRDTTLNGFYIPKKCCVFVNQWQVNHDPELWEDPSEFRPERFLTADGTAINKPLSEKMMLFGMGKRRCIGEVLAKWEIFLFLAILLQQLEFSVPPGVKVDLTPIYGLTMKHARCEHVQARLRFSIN
Method: To characterize the inhibition mode on CYP1A by bakuchicin, 0.5 mg/mL of HLMs was incubated with bakuchicin at 0, 0.2, 0.4, and 0.8 μM in 0.1 M potassium phosphate buffer (pH 7.4) for 60 min at 37°C. Those were terminated by adding 100 μL acetonitrile containing 0.1% formic acid and 2.5 μL of internal standard solution (5 μM reserpine) in methanol. After mixing and centrifuging at 13,000 ×g for 12 min, a 5 μL aliquot was injected onto a C18 column for LC-MS/MS analysis. Phenacetin was used as a probe substrate at 20, 40, or 80 μM. The inhibition pattern was investigated by Michaelis-Menten and its secondary plotting.
as §1, §2

CYP2D6 = molecular target: T3, CYP2D6 (Homo sapiens, UniProt P10635); test: CYP inhibition, cocktail of probe substrates in pooled human liver microsomes: dextromethorphan O-demethylation; type: in vitro ADME; conditions: pooled HLMs, dextromethorphan O-deethylation, substrate 5 μM
T3 construct: each reaction was performed with 0.5 mg/mL pooled human liver microsomes; tissue Corning Gentest BD UltraPool HLM 150; host or cells: pooled human liver microsomes
T3 sequence (P10635 whole entry): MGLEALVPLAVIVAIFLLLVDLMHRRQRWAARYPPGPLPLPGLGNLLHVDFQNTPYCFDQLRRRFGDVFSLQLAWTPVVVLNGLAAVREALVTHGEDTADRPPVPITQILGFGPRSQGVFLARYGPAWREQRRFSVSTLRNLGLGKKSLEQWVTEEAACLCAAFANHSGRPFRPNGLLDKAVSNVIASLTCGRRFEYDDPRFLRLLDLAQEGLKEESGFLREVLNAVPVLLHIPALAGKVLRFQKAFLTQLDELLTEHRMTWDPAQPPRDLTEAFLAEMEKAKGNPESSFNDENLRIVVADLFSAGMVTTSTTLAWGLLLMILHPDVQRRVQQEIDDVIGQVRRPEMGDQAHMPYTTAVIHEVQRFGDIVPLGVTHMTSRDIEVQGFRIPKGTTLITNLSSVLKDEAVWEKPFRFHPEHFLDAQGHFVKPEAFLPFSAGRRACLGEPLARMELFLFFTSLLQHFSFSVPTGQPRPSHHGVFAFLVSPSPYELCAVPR

IC50 ([1]; recombinant CYP1A1, 80 μM phenacetin, 60 min, read-out: IC50, CYP1A1-catalyzed phenacetin O-deethylase activity): 0.2 µM | Ki ([1]; recombinant CYP1A1, phenacetin 20, 40, 80 μM, 60 min, read-out: Ki on CYP1A1 (secondary plot)): 0.11 µM | Ki at 60 min (CYP1A; human, pooled human liver microsomes, pH 7.4, probe phenacetin (O-deethylation), phenacetin 20, 40, 80 μM, 60 min incubation): 0.09 µM | inhibition mechanism on CYP1A in HLMs (CYP1A): reversible competitive inhibitor | IC50 (CYP2D6; 15 min preincubation with NADPH, read-out: IC50 With preincubation with NADPH): 15.1 µM | IC50 (CYP2D6; 15 min preincubation without NADPH, read-out: IC50 With preincubation Without NADPH): 21.7 µM | IC50 (CYP2D6; without preincubation, read-out: IC50 Without preincubation): 18.2 µM
Compound: O=c1ccc2c(ccc3ccoc32)o1 [Bakuchicin]
inhibition mode on CYP1A1 ([1]; recombinant CYP1A1, Lineweaver-Burk plot): competitive inhibitor; also recorded: competitive inhibition | inhibition mechanism on CYP1A in HLMs (CYP1A; listed as bakuchicin): competitive inhibition; also recorded: reversible inhibitor
